Experimental data taken from patent publication US20210386367A1, “DEVICES AND SYSTEMS FOR GASTROINTESTINAL MICROBIOME DETECTION AND MANIPULATION” (Progenity, Inc., priority 2018, published 2021).
Converted amounts (≈) assume the structure as drawn.

Legend:
Enterobacter aerogenes = experiment: Broth microdilution MIC, 50 clinical isolates; assay type: cell-based
Summary of the method: (§1)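 CLSI broth microdilution in cation-adjusted Mueller Hinton broth, with 3% lysed horse blood added for streptococci. Two-fold dilutions, inoculum ~5×10^5 CFU/mL, 35° C for 16-24 hr in ambient air (streptococci with CO2 planchets). MIC = lowest concentration inhibiting visible growth.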

Proteus mirabilis = experiment: Broth microdilution MIC, 50 clinical isolates; assay type: cell-based
Summary of the method: as §1

Pseudomonas aeruginosa = experiment: Broth microdilution MIC, 50 clinical isolates; assay type: cell-based
Summary of the method: as §1

B. fragilis ATCC 25285 = experiment: Broth microdilution MIC (time-kill study); assay type: cell-based, Bacteroides fragilis
B. vulgatus ATCC 8482 = experiment: Broth microdilution MIC (time-kill study); assay type: cell-based, Bacteroides vulgatus
[1] = tested on: three isolates each of E. coli, Streptococcus spp. and Bacteroides spp.; experiment: Time-kill assay, overall summary; assay type: cell-based
Experimental: MIC values were determined by broth microdilution in accordance with guidelines from the Clinical and Laboratory Standards Institute (CLSI; (1) “Methods for Dilution Antimicrobial Susceptibility Tests for Bacteria That Grow Aerobically; Approved Standard; 11th ed.,” CLSI standard M07, 2018; (2) “Performance Standards for Antimicrobial Susceptibility Testing; 28th ed.,” CLSI supplement M100, 2018).
During the time-kill study, the test flasks were sampled at 2, 6, and 24 hr for determination of viable counts using the track dilution method as described above. Bacteroides was also sampled at 48 hr. All E. coli plates were incubated for 20-24 hr at 35° C., Streptococci for 20-24 hr at 35° C. in a CO2 incubator, and Bacteroides for approximately 48 hr at 35° C. in the anaerobe chamber. Colonies were counted manually, and the CFU/mL was determined from the average count of the duplicate plates, followed by the calculation of the log10 CFU/mL. The limit of detection for the assay was 50 CFU/mL.

Structure (SMILES): CO[C@H]1/C=C/O[C@@]2(C)Oc3c(C)c(O)c4c(O)c(c5c(nc6cc(C)ccn65)c4c3C2=O)NC(=O)/C(C)=C\C=C\[C@H](C)[C@H](O)[C@@H](C)[C@@H](O)[C@@H](C)[C@H](OC(C)=O)[C@@H]1C [rifaximin]
- MIC50 (Enterobacter aerogenes): 16 µg/mL (≈ 20.4 µM)
- MIC90 (Enterobacter aerogenes): 64 µg/mL (≈ 81.4 µM)
- Mode (Enterobacter aerogenes): 16 µg/mL
- Cumulative percentage of isolates inhibited at MIC (Enterobacter aerogenes; 8 μg/mL): 20.0%
- Number of test isolates at MIC (Enterobacter aerogenes; 8 μg/mL): 10
- Cumulative percentage of isolates inhibited at MIC (Enterobacter aerogenes; 16 μg/mL): 64.0%
- Number of test isolates at MIC (Enterobacter aerogenes; 16 μg/mL): 22
- Cumulative percentage of isolates inhibited at MIC (Enterobacter aerogenes; 32 μg/mL): 88.0%
- Number of test isolates at MIC (Enterobacter aerogenes; 32 μg/mL): 12
- Cumulative percentage of isolates inhibited at MIC (Enterobacter aerogenes; 64 μg/mL): 98.0%
- Number of test isolates at MIC (Enterobacter aerogenes; 64 μg/mL): 5
- Cumulative percentage of isolates inhibited at MIC (Enterobacter aerogenes; >64 μg/mL): 100.0%
- Number of test isolates at MIC (Enterobacter aerogenes; >64 μg/mL): 1
- MIC50 (Proteus mirabilis): 4 µg/mL (≈ 5.09 µM)
- MIC90 (Proteus mirabilis): 8 µg/mL (≈ 10.2 µM)
- Mode (Proteus mirabilis): 4 µg/mL
- Cumulative percentage of isolates inhibited at MIC (Proteus mirabilis; 4 μg/mL): 84.0%
- Number of test isolates at MIC (Proteus mirabilis; 4 μg/mL): 42
- Cumulative percentage of isolates inhibited at MIC (Proteus mirabilis; 8 μg/mL): 96.0%
- Number of test isolates at MIC (Proteus mirabilis; 8 μg/mL): 6
- Cumulative percentage of isolates inhibited at MIC (Proteus mirabilis; >64 μg/mL): 100.0%
- Number of test isolates at MIC (Proteus mirabilis; >64 μg/mL): 2
- MIC50 (Pseudomonas aeruginosa): 8 µg/mL (≈ 10.2 µM)
- MIC90 (Pseudomonas aeruginosa): 16 µg/mL (≈ 20.4 µM)
- Mode (Pseudomonas aeruginosa): 8 µg/mL
- Cumulative percentage of isolates inhibited at MIC (Pseudomonas aeruginosa; 4 μg/mL): 16.0%
- Number of test isolates at MIC (Pseudomonas aeruginosa; 4 μg/mL): 8
- Cumulative percentage of isolates inhibited at MIC (Pseudomonas aeruginosa; 8 μg/mL): 66.0%
- Number of test isolates at MIC (Pseudomonas aeruginosa; 8 μg/mL): 25
- Cumulative percentage of isolates inhibited at MIC (Pseudomonas aeruginosa; 16 μg/mL): 94.0%
- Number of test isolates at MIC (Pseudomonas aeruginosa; 16 μg/mL): 14
- Cumulative percentage of isolates inhibited at MIC (Pseudomonas aeruginosa; 32 μg/mL): 96.0%
- Number of test isolates at MIC (Pseudomonas aeruginosa; 32 μg/mL): 1
- Cumulative percentage of isolates inhibited at MIC (Pseudomonas aeruginosa; 64 μg/mL): 98.0%
- Number of test isolates at MIC (Pseudomonas aeruginosa; 64 μg/mL): 1
- Cumulative percentage of isolates inhibited at MIC (Pseudomonas aeruginosa; >64 μg/mL): 100.0%
- Number of test isolates at MIC (Pseudomonas aeruginosa; >64 μg/mL): 1
- MIC (B. fragilis ATCC 25285; B. fragilis MMX 123 ATCC 25285): 0.5 µg/mL (≈ 0.636 µM)
- MIC (B. fragilis ATCC 25285; broth microdilution): 0.05 µg/mL (≈ 0.0636 µM)
- MIC (B. vulgatus ATCC 8482; B. vulgatus ATCC 8482): 0.25 µg/mL (≈ 0.318 µM)
- MIC (B. vulgatus ATCC 8482; broth microdilution): 0.25 µg/mL (≈ 0.318 µM)
- overall time-kill outcome [1]: bacteriostatic activity and regrowth was typically observed
